From patent US9701707B2, “Methods of synthesizing substituted purine compounds” (Epizyme, Inc., priority 2013, dated 2017)

How the values were obtained:
[1] = Dynamic vapor sorption (DVS) hygroscopicity; type: physicochemical; settings: at 80% RH, 25° C.
Protocol: Form A may be observed EP-1. […] (peak temperature) which is accompanied by 5.9 wt % weight loss up to ˜150° C. in the TGA curve (FIG. 3). […] Form A is hygroscopic as indicated by water adsorption of 5.8 wt % at 80% RH measured by dynamic vapor sorption (DVS) (FIG. 4). A solid is considered moderately hygroscopic when water uptake at 25° C./80% RH is between 2-15 wt % based on criteria of European Pharmacopeia.
Form B of EP-1 trihydrate (x is 3) is a trihydrate as confirmed by single crystal analysis. The experimental XRPD pattern of Form B matches well with the simulated one from single crystal data (FIG. 6). This was also confirmed by DSC and TGA data (FIG. 7 and FIG. 8, respectively). DSC data indicates Form B dehydrates at ˜132° C. […] Form B is slightly hygroscopic as evidenced by a weight change of ˜0.3% between 0% and 95% RH (FIG. 9), (data collection was programmed from 95% RH-0% RH-95% RH at a step size of 10% RH at 25° C.).

[2] = Solubility in Simulated Gastric Fluid (SGF) at 37° C.; type: physicochemical
Protocol: To study if Form A and Form B would perform differently in stomach, the solubilities of Form A and Form B were measured in Simulated Gastric Fluid (SGF, see below for SGF preparation) at 37° C. In these experiments, about 100 mg Form A and 50 mg Form B were weighed into 20-ml glass vials, followed by addition of 4 ml SGF into each vial and the samples were stirred at 37° C. Aliquots were taken for solubility determination using HPLC after 15, 30, and 60 min, respectively. The remaining solids after each time point were subject to XRPD analysis.
Weigh appropriate amount of hydrochloride (HCl) and sodium chloride (NaCl) into a 1-L flask followed by addition of 1-L deionized water. The mixture was stirred until all solids are dissolved. Check pH value with a pH-meter and adjust the pH to 1.8 with HCl (1N) or NaOH (1N).

water adsorption [1]: 5.8 wt %
time of conversion to Form B in SGF [2]: ≤ 15 min
solubility at 15 min ([2]; Simulated Gastric Fluid (SGF), pH 1.8, simulated gastric fluid, thermodynamic from solid, 15 min, calculated using free base content): 5400 µg/mL
solubility at 30 min ([2]; Simulated Gastric Fluid (SGF), pH 1.8, simulated gastric fluid, thermodynamic from solid, 30 min, calculated using free base content): 5500 µg/mL
solubility at 60 min ([2]; Simulated Gastric Fluid (SGF), pH 1.8, simulated gastric fluid, thermodynamic from solid, 60 min, calculated using free base content): 5300 µg/mL
SMILES: CC(C)N(CC1O[C@@H](n2cnc3c(N)ncnc32)[C@H](O)[C@@H]1O)C1CC(CCc2nc3cc(C(C)(C)C)ccc3[nH]2)C1 (stereo partly drawn) [Form A, (2R,3R,4S,5R)-2-(6-amino-9H-purin-9-yl)-5-((((1r,3S)-3-(2-(5-(tert-butyl)-1H-benzo[d]imidazol-2-yl)ethyl)cyclobutyl)(isopropyl)amino)methyl)tetrahydrofuran-3,4-diol hydrate]
